Assay results taken from patent US4980377A, “1-(aminophenyl)-2-aminopropanone derivatives” (Laboratoire L. Lafon, priority 1984, dated 1990).
Entries after “also recorded” stand apart in the source; their conditions may differ. Counter-ions that a name gives are not always drawn.

Tests used:
mice [1] = assay: Behavioral despair; format: in vivo, mouse; settings: forcibly immersed mice, i.p.
Description: Half an hour after they have received CRL 41 153, groups of 6 mice are placed in a beaker filled with water to a height of 6 cm. The total period of immobility between the 2nd and 6th minutes following immersion is noted.

mice [2] = assay: Motility reduced by habituation to the enclosure; format: in vivo, mouse; settings: i.p.
Procedure: After they have stayed In the actimeters for 18 hours, (he mice (6 per dose, 12 control animals) receive CRL 41 153. They are immediately returned to their respective enclosures and, half an hour later, their motility is recorded for 30 minutes.

[3] = tested on: gravid White New Zealand female rabbits; assay: Teratogenicity in gravid White New Zealand rabbits; format: in vivo, rabbit; settings: day 5 to day 18 of gestation; for Affected foetuses, %: normal limit 1.5%
Procedure, shortened: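 Fetuses harvested by cesarean on gestation day 29 were scored for number and for any malformation (limb blockade, anury, tail or skull defects, exencephaly).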

mice [4] = assay: Motility reduced by hypoxic aggression; format: in vivo, mouse; settings: i.p.
Procedure: Half an hour after they have received CRL 41 153, the mice (10 per dose, 20 control animals) are subjected to acute hypobaric anoxia [pressure reduction of 600 mm Hg (i.e. about 8×10^4 Pa) in 90 seconds; release of vacuum in 45 seconds] and are then placed in an actimeter, where their motility is recorded for 10 minutes.

mice [5] = assay: Spontaneous motility; format: in vivo, mouse; settings: i.p.
Procedure: 0.5 hour after they have received CRL 41 153, the mice (6 per dose, 12 control animals) are placed in an actimeter, where their motility is recorded for 30 minutes.

mice [6] = assay: Interaction with apomorphine in mice; format: in vivo, mouse; settings: i.p.
Procedure: Groups of 6 mice receive CRL 41 153 0.5 hour before the subcutaneous injection of 1 or 16 mg/kg of apomorphine.

mice [7] = assay: Interaction with reserpine; format: in vivo, mouse; settings: i.p.
Procedure: Four hours after the intraperitoneal injection of 2.5 mg/kg of reserpine, groups of 6 mice receive CRL 41 153.

rats [8] = assay: Interaction with amphetamine; format: in vivo, rat; settings: i.p.
Procedure: Amphetamine (2 mg/kg) is injected intraperitoneally into groups of 6 rats 30 minutes after the administration of CRL 41 153. […] 4 mg/kg and 16 mg/kg, CRL 41 153 potentiates the intensity and duration of the stereotypies induced by amphetamine.

humans = assay: Clinical study: vasodilator; format: in vivo, human
Description: In the treatment of diseases associated with the blood circulation through the vessels.

rats [9] = assay: Overall behavior and reactivities in rats; format: in vivo, rat; settings: dose not stated
Procedure: (§1) In the neuropsychopharmacological study which follows, a solution of CRL 41 153 in distilled water (pH 1.5) was administered intraperitoneally in a volume of 20 ml/kg to male mice and 5 ml/kg to male rats.
(§2) Groups of three animals are observed before and then 0.25 hour, 0.50 hour, 1 hour, 2 hours, 3 hours and 24 hours after the administration of CRL 41 153.

mice [10] = assay: Interaction with barbital; format: in vivo, mouse; settings: i.p., barbital 220 mg/kg
Procedure: Half an hour after the administration of CRL 41 153, groups of 10 mice receive an intraperitoneal injection of barbital (220 mg/kg).

[11] = pH of solutions in distilled water; format: physicochemical
Procedure: The neuropsychopharmacological study was undertaken according to the procedures described above for CRL 41 153, CRL 41 213 being adminstered intraperitoneally, in solution in distilled water, in a volume of 20 ml/kg to male mice and a volume of 5 ml/kg to male rats, and the pH of the injected solution varying with the concentration of CRL 41 213 according to the data given in Table II below.

mice [12] = assay: Overall behavior and reactivities in mice; format: in vivo, mouse; settings: dose not stated
Procedure: as §1, §2

rats [13] = assay: Interaction with apomorphine in rats; format: in vivo, rat; settings: i.p.
Procedure: CRL 41 153 is administered to groups of 6 rats 0.5 hour before the subcutaneous injection of 0.5 mg/kg of apomorphine.

dogs = assay: Cardiovascular study in anesthetized dogs; format: in vivo, dog
Procedure, shortened: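 Nembutal-anaesthetized dogs (~14 kg) given CRL 41 194 (n=2) or CRL 41 221 (n=4) intraduodenally at successive 0.1, 0.5, 1, 2.5, 5 and 10 mg/kg doses. Blood pressure, heart rate, femoral and vertebral flow, rectal temperature measured; skin colour observed, plus bile colour (CRL 41 194).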

mice [14] = assay: Interaction with oxotremorine; format: in vivo, mouse; settings: i.p.
Procedure: CRL 41 153 is administered to groups of 6 mice 0.5 hour before the intraperitoneal injection of 0.5 mg/kg of oxotremorine.

[15] = Acute toxicity by intraperitoneal administration; format: in vivo, mouse; settings: mouse, in vivo, ip; male mice
Procedure: as §1

CNS = assay: Neuropsychopharmacological profile as a whole; format: in vivo, mice and rats
Procedure: as §1

[16] = anesthetized dogs, intraduodenal

Structure (SMILES): CC(C(=O)c1ccc(N)cc1)N1CCCC1 (stereo not drawn) [CRL 41 222, 1-(4-aminophenyl)-2-pyrrolidinopropanone dihydrochloride]
- Period of immobility due to despair (mice [1]): a reduction in the period of immobility
- Motor activity of mice accustomed to their enclosure (mice [2]): resumption in the motor activity of mice accustomed to their enclosure
- Affected foetuses, number ([3]; 5 mg/kg daily): 1
- Total foetuses (live) ([3]; 5 mg/kg daily): 85
- Affected foetuses, % ([3]; 5 mg/kg daily): 1.29%
- Affected foetuses, number ([3]; 10 mg/kg daily): 0
- Total foetuses (live) ([3]; 10 mg/kg daily): 92
- Affected foetuses, % ([3]; 10 mg/kg daily): 0%
- Motor recovery of mice after hypobaric hypoxia (mice [4]): improvement in the motor recovery
- Spontaneous motor activity (mice [5]): an increase in the motor activity
- Effect on hypothermia induced by apomorphine (mice [6]): antagonism of the hypothermia
- Effect on hypothermia induced by reserpine (mice [7]): antagonism of the hypothermia
- Effect on ptosis induced by reserpine (mice [7]): antagonism of the ptosis induced by reserpine
- Effect on stereotypies induced by amphetamine (rats [8]): potentiation of the stereotypies
- Vasodilator in human clinical use (humans): good peripheral vasodilator at a daily dose of 2×10 mg
- Overall behavior: observed effects (summary) (rats [9]): excitation in mice and rats
- Stereotype movements (summary) (rats [9]): presence of stereotype movements
- Duration of the sleep induced by barbital (mice [10]): distinct antagonism of the sleep induced by barbital
- pH ([11]; 0.1 g/liter in distilled water): 5
- pH ([11]; 0.2 g/liter in distilled water): 4.5
- pH ([11]; 0.4 g/liter in distilled water): 4.0
- pH ([11]; 0.8 g/liter in distilled water): 3.5
- pH ([11]; 1.6 g/liter in distilled water): 3.0
- pH ([11]; 3.2 g/liter in distilled water): 2.5
- pH ([11]; 6.4 g/liter in distilled water): 2.0
- pH ([11]; 12.8 g/liter in distilled water): 1.5
- pH ([11]; ≤0.05 g/liter in distilled water): 5.5
- Overall behavior: observed effects (summary) (mice [12]): excitation in mice and rats
- Stereotype movements (summary) (mice [12]): presence of stereotype movements
- Effect on stereotypies induced by apomorphine (rats [13]): potentiation of the stereotypies
- Vasodilator (conclusion) (dogs): vasodiating properties
- Effect of propanolol or atenolol on the action of the product (dogs; anesthetized dogs): acts by stimulating the β-cardiac and vascular receptors
- Effect on hypertension induced by norepinephrine (dogs; anesthetized dogs): moderately increases the hypertension induced by norepinephrine
- Effects of isoprenaline (not further specified) (dogs; anesthetized dogs): without modifying the effects of isoprenaline
- Rectal temperature (dogs; anesthetized dogs): The rectal temperature and skin temperature rise
- Skin temperature (dogs; anesthetized dogs): The rectal temperature and skin temperature rise
- Blood pressure (dogs; [16]): A hypotensive action appears at 20 mg/kg as a drop in the diastolic blood pressure
- Femoral flow (dogs; [16]): substantial and regular increase in the femoral and vertebral flows
- Heart rate (dogs; [16]): accompanied by tachycardia
- Respiration (dogs; [16]): Respiratory stimulation is observed in all the animals
- Vertebral flow (dogs; [16]): substantial and regular increase in the femoral and vertebral flows
- Effect on hypothermic action of oxotremorine (mice [14]): antagonism of the hypothermia
- Effect on trembling induced by oxotremorine (mice [14]): antagonism of the trembling induced by oxotremorine
- LD50 [15]: 87 mg/kg
- Antidepressant effects (overall) (CNS; conclusion of the tests): possessing antidepressant, stimulant and arousing properties
- Stimulant effects (overall) (CNS; conclusion of the tests): possessing antidepressant, stimulant and arousing properties
- α-adrenergic stimulant effects (overall) (CNS; conclusion of the tests): peripheral α-adrenergic stimulant effects
- Peripheral α-adrenergic signs (mydriasis, salivation, lacrimation, exophthalmos) (CNS; species and dose not stated, dihydrochloride): mydriasis; also recorded: salivation and lacrimation
